# Assays:
# [1] = tested on: embryonic-like stem cells derived from placenta; assay: Total vessel area/field and branching/bifurcation of cultured placental embryonic-like stem cells (Table 4); type: cell-based, human; parameters: key to Branching/Bifurcation (+/−): +: a branch or bifurcation was observed; −: no branch or bifurcation was observed
# Experimental: In another experiment, the results of which are summarized in Table 4, embryonic-like stem cells derived from placenta were cultured, using the culture conditions described above, and in the presence of EGCF, DMSO, Thalomid™, Actimid™ or Revimid™.
# A “+” means that a branch or bifurcation was observed and a “−” means that no branch or bifurcation was observed. […] See also FIGS. 3A, 3B
# [2] = tested on: embryonic-like stem cells derived from placenta; assay: Immunostaining for CD34, CD45 and CD105 in cultured placental stem cells (ratios to TNC, Table 3); type: cell-based, human; conditions: for CD34/TNC / CD45/TNC / CD105/TNC: placental conditioned media, 14 days in culture
# Experimental: (§1) The cells were scored for the expression of CD34 (a marker of early hematopoietic progenitor cells; also an endothelial cell marker), CD45 (a marker of all hematopoietic cells except erythrocytes), CD105 (a marker of proliferating endothelial cells), smooth muscle cell (SMC)-specific myosin heavy chain, nestin ([…]), and glial fibrillary acidic protein (GFAP). Ratios of CD34 cells/TNC (Total Number of Cells), CD45 cells/TNC and CD105 cells/TNC were also determined.
# In another experiment, the results of which are summarized in Table 3, embryonic-like stem cells derived from placenta were cultured, using the conditions described in the umbilical vessel ring assay described above, in the presence of placenta-conditioned medium with DMSO (negative control), Thalomid™, Actimid™ or Revimid™. After 14 days in culture, the cells were then immunostained for expression of CD34+, CD45+ and CD 105+.
# [3] = tested on: embryonic-like stem cells derived from placenta; assay: Marker expression of cultured embryonic-like stem cells (staining score, Table 2); type: cell-based, human; parameters: key to SMC-specific Myosin HC / GFAP / CD34+ / CD45+: −: no staining; +/−: <20% staining; +: 20-50% staining; ++: 50-75% staining; +++: >75% staining; conditions: for CD34+ / CD45+ / GFAP / Nestin / SMC-specific Myosin HC: placental conditioned media, fourteen days of culture
# Experimental: The following experiments evaluated the effects of Thalomid™, Actimid™ and Revimid™ on the morphological differentiation of embryonic-like stem cells derived from placenta. The morphological differentiation of cultured embryonic-like stem cells was evaluated after fourteen days of culture in the presence of placental conditioned medium and with DMSO (control), EGCF, Thalomid™, Actimid™ or Revimid™.
# (§2) Embryonic-like stem cells were isolated from placenta as described above in Section 5.4. The embryonic-like stem cells were cultured using the culture conditions described above.
# as §1
# In Table 2, the scoring was as follows: • −: no staining; +/−: <20% staining+: 20-50% staining; ++: 50-75% staining; +++: >75% staining.
# rat aortic rings = assay: Rat aortic angiogenesis assay; type: cell-based, Sprague Dawley rats
# Experimental: Twelve well tissue culture grade plates were covered with 250 μl of Matrigel and allowed to gel for 30-45 min at 370 C, 5% Co2. Thoracic aortas were excised from eight to ten week old male Sprague Dawley rats and the fibroadipose tissue was removed. The aortas were sectioned into 1 mm long sections, rinsed eight times with EGM-2 (Clonetics Corp), placed on the Matrigel coated wells, covered with additional 250 μl Matrigel, and allowed to gel for 30-45 min at 370 C. The rings were cultured for 24 hours in 2 ml of EGM-2. After 24 hours, recombinant murine endostatin was reconstituted in EBM and added as a single treatment on day 1. Thalidomide was added at different concentrations (1 μg/ml, 5 μg/ml, 10 μg/ml, 50 μg/ml and 100 μg/ml) in the presence or absence of rabbit microsomes as noted in the Table 5. Aortic rings were photographed on days.
# [4] = tested on: umbilical vessel explant / cultured cells; assay: Umbilical vessel ring assays, photomicrographs of cultured cells (FIGS. 1-3); type: cell-based, human
# Experimental: FIGS. 1(A-D). Photomicrographs of cultured cells in umbilical vessel ring assays as described in Section 6.2. A. Positive control. The explant was cultured in media+EGCF 200 μg/ml. […] B. Negative control. The explant was cultured in placental conditioned media+supplement. In the absence of EGCF, fewer cells migrated from the explant than in the positive control (A). C. Treatment Group 3. The explant was cultured in placental conditioned media+EGCF 200 μg/ml+Thalomid™ 100 μg/ml. […] D. Treatment Group 2. The explant was cultured in placental conditioned media+EGCF 200 μg/ml+Thalomid™ 10 μg/ml.
# FIGS. 2(A-C). Photomicrographs of cultured cells in umbilical vessel ring assays as described in Section 6.2. A. Control. Cells were cultured in placental conditioned media+ECGF 200 μg/ml+DMSO 1 μg/ml. B. Cells were cultured in placental conditioned media+ECGF 200 μg/ml+DMSO 1 μg/ml+Thalomid™ 1 μg/ml. […]. Cells were cultured in placental conditioned media+ECGF 200 μg/ml+DMSO 1 μg/ml+Thalomid™ 10 μg/ml.
# FIGS. 3(A-B). Photomicrographs of cultured cells in umbilical vessel ring assays as described in Section 6. A. Control. Cells were cultured in placental conditioned media+DMSO. […] B. Cells were cultured in placental conditioned media+DMSO+Thalomid™.
# as §2
structure (smiles),measurement,setting,value
"O=C1CCC(N2C(=O)c3ccccc3C2=O)C(=O)N1 (centres unmarked) [Thalomid, thalidomide, reference compound]",Branching/Bifurcation (+/−),[1]; 1 μg/ml,−
same,Total Vessel Area/Field (% Coverage),[1]; 1 μg/ml,24.1 +/− 4.4 % Coverage
same,Branching/Bifurcation (+/−),[1]; 10 μg/ml,−
same,Total Vessel Area/Field (% Coverage),[1]; 10 μg/ml,14.8 +/− 7.2 % Coverage
same,branching and/or bifurcation exhibited by the cells,[1]; summary of Table 4,decreases the branching and/or bifurcation exhibited by the cells
same,total vessel area/field covered by the cells,[1]; summary of Table 4,decrease in the total vessel area/field covered by the cells
same,CD34/TNC,[2]; 10 μg/ml,0.64
same,CD45/TNC,[2]; 10 μg/ml,3.87
same,CD105/TNC,[2]; 10 μg/ml,6.8
same,CD34/TNC,[2]; 100 μg/ml,0.38
same,CD45/TNC,[2]; 100 μg/ml,4.21
same,CD105/TNC,[2]; 100 μg/ml,7.0
same,"numbers of cells expressing CD34, CD45 and CD 105",[2]; summary of Table 3,decrease
same,CD34+,[3]; 10 μg/mL,+/− (<20% staining)
same,CD45+,[3]; 10 μg/mL,+ (20-50% staining)
same,GFAP,[3]; 10 μg/mL,−
same,Nestin,[3]; 10 μg/mL,+ (20-50% staining)
same,SMC-specific Myosin HC,[3]; 10 μg/mL,−
same,CD34+,[3]; 100 μg/mL,−
same,CD45+,[3]; 100 μg/mL,+ (20-50% staining)
same,GFAP,[3]; 100 μg/mL,+ (20-50% staining)
same,Nestin,[3]; 100 μg/mL,+ (20-50% staining)
same,SMC-specific Myosin HC,[3]; 100 μg/mL,−
same,"numbers of cells expressing CD34, CD45 and smooth muscle cell (SMC)-specific myosin heavy chain",[3]; summary of Table 2,decreased
same,numbers of cells expressing nestin and glial fibrillary acidic protein (GFAP),[3]; summary of Table 2,increased
same,mean microvessel growth (% of control),"rat aortic rings; 10 μg/ml, + Rabbit microsomes",16.6 % of control
same,mean microvessel growth (% of control),"rat aortic rings; 10 μg/ml, without microsomes",60 % of control
same,mean microvessel growth (% of control),"rat aortic rings; 50 μg/ml, + Rabbit microsomes",17.6 % of control
same,mean microvessel growth (% of control),"rat aortic rings; 50 μg/ml, without microsomes",82 % of control
same,need of rabbit microsomes for inhibition of vessel formation,rat aortic rings; summary of Table 5,requires the addition of rabbit microsome in order to show efficient inhibition of vessel formation
same,cell phenotype (branching / non-branching),[4]; placental conditioned media + DMSO (FIG. 3),"More cells exhibit a branching (e.g., neuronal) phenotype than in the control"
same,number of cells seen,[4]; placental conditioned media + ECGF 200 μg/ml + DMSO 1 μg/ml + 1 μg/ml (FIG. 2),Fewer cells are seen than in the control
same,number of cells seen,[4]; placental conditioned media + ECGF 200 μg/ml + DMSO 1 μg/ml + 10 μg/ml (FIG. 2),Fewer cells are seen than in the control (A) or in (B)
same,cell migration from the explant and outgrowth,[4]; placental conditioned media + EGCF 200 μg/ml + 10 μg/ml (FIG. 1D),cells migrated a shorter distance from the explant and they exhibited less dense outgrowth than in the positive control
same,cell migration from the explant,[4]; placental conditioned media + EGCF 200 μg/ml + 100 μg/ml (FIG. 1C),cells migrated a shorter distance from the explant than in the positive control

# — US20050148034A1, “Methods for identification of modulators of angiogenesis, compounds discovered thereby, and methods of treatment using the compounds” (priority 2002, published 2005)
